How the values were obtained:
[1] = tested on: VEGF protein; experiment: ELISA of secreted VEGF protein levels; type: cell-based, human; conditions: HeLa cells, 1 μM to 10 μM, DFO 300 μM
Experimental: The ability of HBS 1 and HBS 2 to inhibit hypoxia-induced transcription of target genes (VEGFA, SLC2A1/GLUT-1, and LOX) was evaluated employing real-time quantitative RT-PCR (qRT-PCR) assays. The data from the qRT-PCR experiments are presented in FIGS. 17A-D. HBS 1 reduced expression levels of VEGF by 50% at 10 μM and greater than 60% at 50 μM showing marked dose dependence. […] Next, it was determined whether this inhibition could be observed for other therapeutically relevant hypoxia-inducible genes. […] To rule out the possibility that the compounds are only efficacious under DFO mimicked hypoxia, the efficacies of the HBS peptides in downregulating VEGF gene expression were compared under two different hypoxia mimetic conditions: DFO and prolonged incubation in an anaerobic pouch. […] Next, the effect of HBS 1 treatment on the levels of secreted VEGF protein was assessed.

[2] = Plasma stability and biodistribution study; type: in vivo; conditions: 1 mg/kg intravenously, female BALB/c mice
Experimental: Plasma stability and biodistribution studies were performed in 10-week-old female BALB/c mice (Charles River) with 3 mice per time point. Briefly, HBS 1 or peptide 3 was dissolved in 70 μL of sterile PBS and administered intravenously at a dose of 1 mg/kg. Then, 1 mL of blood was collected by cardiac puncture at euthanasia at the following time points: 30 min., 1 h., 2 h., 4 h., 6 h., 8 h., 12 h., 16 h., and 24 h. after drug administration. The experiments were performed under an approved IACUC protocol at the University of Southern California.
Samples were prepared by mixing 30 μL of plasma with 20 μL of 50% MeOH and 50% aqueous 1% formic acid. The mixture was vortexed and mixed with an additional 120 μL of 0.5% formic acid in MeOH/ACN (4:6) and 20 μL of 2.0 μg/mL isoproterenol in MeOH/1% aqueous formic acid (1:1) as an internal standard. The mixture was vortexed again for 2 minutes and centrifuged at 13,000 rpm for 4 minutes. Next, 20 μL of the supernatant was transferred to a new tube and mixed with 180 μL of 50% MeOH/ACN (4:6) and 50% aqueous 1% formic acid. Standard curves were prepared by mixing the plasma from three untreated mice with 20 μL of 50% MeOH and 50% aqueous 1% formic acid prepared with HBS 1 or peptide 3 at a concentration range of 0.05-2 μg/mL.
Samples were analyzed by LC/MS/MS using an Agilent 6210 time-of-flight LC/MS system. HPLC separation was achieved using a Prevail 3u C18 100×2.1 mm column (Grace Davison, Deerfield, Ill., USA). The column temperature was maintained at 20° C. The mobile phase consisted of A (5% acetonitrile and 95% of 0.05% aqueous formic acid) and B (5% of 05% aqueous formic acid and 95% acetonitrile). The following gradient program was used: 0% B (0 min, 0.125 ml/min), 100% B (17 min, 0.125 ml/min). The total run time was 35 minutes. […]
A mouse xenograft tumor model was used to assess the in vivo efficacy of HBS 1. The relative plasma stabilities of HBS 1 and linear peptide 3 in mice were first measured. […]

SMILES: CC(C)C[C@H](NC(=O)[C@H](C)NC(=O)[C@H](CCCNC(=N)N)NC(=O)[C@H](C)N1CC=CCCC(=O)N[C@@H](CCC(=O)O)C(=O)N[C@@H](CC(C)C)C1=O)C(=O)N[C@@H](CC(=O)O)C(=O)N[C@@H](CCC(N)=O)C(N)=O [HBS 1, XELA*RALDQ-NH2]
- secreted VEGF protein levels [1]: downregulates VEGF protein levels in HeLa cells in a dose-dependent manner
- pattern of plasma decay [2]: bi-exponential pattern of decay
- plasma concentrations over the same time intervals ([2]; 30 min to 24 h): much higher concentrations as compared to peptide 3

From US20150065436A1, “INHIBITING INTERACTION BETWEEN HIF-1ALPHA AND p300/CBP WITH HYDROGEN BOND SURROGATE-BASED HELICES” (UNIVERSITY OF SOUTHERN CALIFORNIA, priority 2013, published 2015)
